From paper PMC4806436, “Disrupted ADP-ribose metabolism with nuclear Poly (ADP-ribose) accumulation leads to different cell death pathways in presence of hydrogen peroxide in procyclic Trypanosoma brucei” (Parasites & Vectors, 2016)
“Also recorded” adds a separate entry of the source. Like-named read-outs stand apart in the source and are kept apart here. One block for each molecule: values may come before it.

Legend:
hPARP-1 = conditions: cited from earlier work
TbPARP = TbPARP (Trypanosoma brucei brucei, UniProt Q0PW89); test: biochemical; conditions: 500 nM NAD+, 11 min at 25 °C, mean of three dose-response curves
Method: The optimal conditions for the activity of purified recombinant TbPARP, were determined by using a fluorometric activity assay. Incubation at 25 °C with shaking at 300 rpm was placed in propylene plates of 96 wells (Greiner BioOne). To terminate the reaction 2 M KOH (20 μL) and 20 % acetophenone in ethanol (20 μL) were added to each well. After incubating for 10 min at 4 °C, 90 μl of 88 % formic acid was added and incubated in an oven at 110 °C for 5 min. This reaction converts remaining NAD^+ to a fluorescent derivative. After incubation, the plate was allowed to cool down for 15 min and fluorescence was measured using excitation wavelengths of 372 nm and 444 nm for excitation and emission, respectively (Varioskan Flash 4.00.53, Thermo Scientific). Consumption of NAD^+ was detected by the decrease in fluorescence. Experiments were done in triplicates. The activity in control wells were kept under 25 % by optimizing the protein concentration and the incubation time, in order to get a robust signal without slowing down the enzyme activity.
A small set of cations was also tested in order to verify whether the enzymatic activity would depend on them. […] The final assay buffer was 100 mM Na2HPO4/NaH2PO4 pH 7, 500 μM TCEP, 1 μg/μL BSA, and 0.025 mg/mL activated DNA (Sigma Aldrich) and 500 nM NAD^+ (Sigma Aldrich).
Thirty - one compounds were tested. Dilutions from DMSO stocks were made (100 μM, 10 μM and 1 μM) and aliquots of those were used in the enzymatic reaction with 10-fold dilution. Inhibitor solutions were added in triplicates to the plate, followed by the addition of the NAD^+. Reactions were initiated by addition of TbPARP diluted in the same buffer (10 nM). The plate was incubated at 25 °C with shaking (300 rpm, Biosan PST-100 HL) for 45 min. […] To detect any potential fluorescence inherent in the compounds, control reactions were carried out separately with compound alone at 10 μM final concentration. The possible fluorescence quenching properties were controlled using wells within the experimental plate containing the compound with 500 nM NAD^+ in the assay buffer.
The IC50 value for 3-AB (Alexis Biochemicals) was also determined to be used as a reference. Briefly, reaction mix together with the inhibitors at half log dilutions were added to a 96-well plate (10 data points). Reactions were incubated for 11 min at 25 °C after initiating the reaction with the addition of 5 nM TbPARP at a final volume of 50 μL. Measurement of the remaining NAD^+ is described in section Screening of TbPARP inhibitors. All reactions were performed in triplicates and three independent dose response curves were fitted for each inhibitor. Control wells with only NAD^+ or NAD^+ and enzyme were used in the curve fitting, as detailed in our previous work.

[1] = test system: Trypanosoma brucei bloodstream parasites; test: Effect of inhibitors on bloodstream parasite growth (Neubauer count, 24 h); assay type: cell-based; conditions: Olaparib 29 nM, Rucaparib 1.5 μM, 3-AB 580 μM, Nifurtimox 2.5 μM
Method: Trypanosoma brucei bloodstream parasites were grown in HMI-11 medium for 24 h until reaching a density of 5×10^5 cells/mL. Aliquots of 100 μL were distributed in 96-well plates and inhibitors were added at different concentrations as indicated in the figures. After an incubation period of 24 h, the parasite number was counted with a Neubauer chamber. In all experiments, triplicates were done for each condition tested and data significance was assessed by one-way Anova (GraphPad Prism5.03 version Software).

T. cruzi epimastigotes = conditions: cited from earlier work
[2] = test system: PAR formation in procyclic T. brucei; test: In culture inhibition of PAR formation after H2O2, Dot blot, procyclic form; assay type: cell-based, Trypanosoma brucei; conditions: for reduction of PAR synthesis in the parasite: discussion, parasite form not given; for inhibition of PAR formation in culture, procyclic form: inhibitor at 10-fold in vitro IC50 (0.23 μM 4-ANI; 65 nM EB-47; 29 nM Olaparib; 1.5 μM Rucaparib), 30 min preincubation, 500 μM H2O2 10 min
Method: (§1) T. brucei procyclic strain 29–13 [29] was cultured at 28 °C in SDM-79 (Bioscience) containing 10 % (v/v) FCS and 0002 % hemin. T. brucei bloodstream strain 427 90-13 [29] was cultured at 37 °C in HMI-11 (Iscore’s Modified Dulbecco’s Medium (Invitrogen), 100 mg/L sodium pyruvate, 136.1 mg/L hypoxantine, 38.7 mg/L thymidine, 28.22 mg/L bathocuproinedisulfonic acid, 181.8 mg/L L-cysteine, 3.024 mg/L sodium carbonate, 196 μM β-mercaptoethanol) containing FCS (10 % v/v). Parasite viability was analyzed by microscopy.
(§2) For in culture inhibition assays, parasites of the procyclic form of Trypanosoma brucei were grown for 48 h up to a density of 5×10^6 parasites/mL. Parasites of the bloodstream form were grown for 24 h up to a density of 5×10^5 parasites/mL. In both cases, cells were harvested and preincubated for 30 min or 10 min in PBS-Glucose 2 % with inhibitors added, after which the parasites were treated with 500 μM or 250 μM hydrogen peroxide for procyclic and bloodstream forms, respectively, for 10 min.

[3] = test system: Trypanosoma brucei procyclic parasites; test: Effect of inhibitors on procyclic parasite growth (OD600, 48 h); assay type: cell-based; conditions: 2.5 μM, 48 h, positive control
Method: Trypanosoma brucei procyclic parasites were grown in SDM-79 medium for 48 h until reaching a density of 5×10^6 cells/mL. Aliquots of 200 μl were distributed in 96-well plates and inhibitors were present at different final concentrations, as indicated in the figures. Nifurtimox (NFX) was used as a positive control in concentrations ranging from 0.25–25 μM. Culture density was checked by OD600 after 48 h.
In all experiments, triplicates were done for each condition tested and data significance was assessed by one-way Anova (GraphPad Prism5.03 version Software).

[4] = test system: T. brucei procyclic parasites; test: Cell survival (motility) after H2O2 treatment with PARP inhibitor; conditions: 29 nM inhibitor
Method: Cell survival was determined by incubating 500 μL of 1 × 10^6 parasites/mL culture in 24-well cell culture plates (Cellstar) for 6 h with different concentrations of H2O2 (30 μM, 95 μM, 300 μM and 950 μM) and counting motile parasites over the total number using a Neubauer chamber. Each condition was tested in triplicates. Statistical significance was assessed with two-way Anova followed by Bonferroni test (version 5.03 of GraphPad Prism for Windows).

[5] = test system: PAR formation in bloodstream T. brucei; test: In culture inhibition of PAR formation after H2O2, Dot blot, bloodstream form; assay type: cell-based, Trypanosoma brucei; conditions: inhibitor at 10-fold in vitro IC50 (29 nM Olaparib; 1.5 μM Rucaparib), 10 min preincubation, 250 μM H2O2
Method: as §1, §2

[6] = test system: RNAi-TbPARP procyclic parasites; test: Growth of Tet induced RNAi-TbPARP procyclic parasites with inhibitor; assay type: cell-based, Trypanosoma brucei; conditions: 290 nM inhibitor
Source text: A fragment of the TbPARP cDNA (nucleotides 1030 to 1445) [GenBank:DQ679800, Tb927.5.3050] and a fragment of the TbPARG cDNA (nucleotides 593 to 979) [Tb927.9.12810] were sub-cloned into the tetracycline-inducible expression vector p2T7^TI-177 [30] to down-regulate the genes of interest. In addition, whole TbPARP cDNA sequence was sub-cloned into the expression vector p2216 [31] (PCR primer sequences available upon request) to over-express the PARP-eYFP fusion gene.
Not I-linearized RNAi-TbPARP and RNAi-TbPARG constructs and the over-expression construct (10 μg) were transfected into procyclic parasites by electroporation, as described by Downey et al.. The selection of the transfectants was carried out with 20 μg/mL zeocin, and dsRNA and over-expression of the fusion protein was induced with 1.0 μg/mL tetracycline for 3 days.

[7] = test system: wild type procyclic parasites; test: Annexin V / PI flow cytometric cell death analysis; assay type: cell-based, Trypanosoma brucei; conditions: 10 μg/mL, apoptosis-like positive control
Method: Parasites were treated with 1 mM H2O2 for different time intervals and the cell death pathway involved was assessed as it has been detailed in our previous work. The exposure of wild type procyclic parasites for 6 and 12 h to 10 μg/mL Concanavalin A type IV (Sigma-Aldrich) confirmed the apoptosis-like death pathway (positive control). […] Results were analyzed with Cyflogic v 1.2.1 software.

[8] = 5 nM TbPARP, read-out: TbPARP IC50
[9] = 5 nM TbPARP, read-out: TbPARP pIC50 ± SEM (converted)

TbPARP, sequence (Q0PW89 entry or part of it): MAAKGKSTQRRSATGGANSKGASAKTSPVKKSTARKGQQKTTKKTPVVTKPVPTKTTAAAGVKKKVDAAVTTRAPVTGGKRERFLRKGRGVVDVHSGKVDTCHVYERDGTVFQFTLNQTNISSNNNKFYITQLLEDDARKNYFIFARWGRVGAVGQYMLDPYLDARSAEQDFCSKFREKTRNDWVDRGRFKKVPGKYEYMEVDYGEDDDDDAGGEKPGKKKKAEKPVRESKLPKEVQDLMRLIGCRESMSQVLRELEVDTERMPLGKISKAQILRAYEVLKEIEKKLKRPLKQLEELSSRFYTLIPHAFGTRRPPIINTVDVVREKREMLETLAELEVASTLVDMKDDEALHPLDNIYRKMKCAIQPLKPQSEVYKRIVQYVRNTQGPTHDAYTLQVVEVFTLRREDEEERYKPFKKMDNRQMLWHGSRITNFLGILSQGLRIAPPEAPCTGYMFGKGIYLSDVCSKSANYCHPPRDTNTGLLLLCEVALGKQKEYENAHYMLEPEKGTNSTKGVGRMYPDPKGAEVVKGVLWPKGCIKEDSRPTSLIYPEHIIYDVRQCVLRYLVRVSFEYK

IC50 (TbPARP; [8]): 1200 nM
IC50 (TbPARP; [9]): 1230 nM
Molecule: O=c1[nH]ccc2c(O)cccc12 [1,5-Isoquinolinediol, 5-hydroxy-1,2-dihydroisoquinolin-1-one]
IC50 (hPARP-1; reported for human PARP-1): 390 nM

IC50 (TbPARP; [8]): 58000 nM
IC50 (TbPARP; [9]): 57500 nM
Molecule: NC(=O)c1cccc(N)c1 [Compound 3-AB, 3-aminobenzamide]
effect on bloodstream parasite growth [1]: did provoke a decrease on bloodstream parasite growth
effect on T. cruzi growth (T. cruzi epimastigotes; reported earlier, reference not given): reported to diminish T. cruzi growth
IC50 (hPARP-1; reported for human PARP-1): 22000 nM

Molecule: Nc1ccc2c3c(cccc13)C(=O)NC2=O [Compound 4-ANI, 8-amino-3-azatricyclo[7.3.1.0^{5,13}]trideca-1(12),5,7,9(13),10-pentaene-2,4-dione]
reduction of PAR synthesis in the parasite [2]: not able to reduce PAR synthesis in the parasite
inhibition of PAR formation in culture, procyclic form [2]: scarcely inhibited the enzyme
IC50 (hPARP-1): 180 nM
IC50 (TbPARP; [8]): 23 nM
IC50 (TbPARP; [9]): 22.9 nM

IC50 (TbPARP; [8]): 6.5 nM
IC50 (TbPARP; [9]): 6.46 nM
Molecule: Nc1ncnc2c1ncn2[C@@H]1O[C@H](C(=O)N2CCN(CC(=O)Nc3cccc4c3CNC4=O)CC2)[C@@H](O)[C@H]1O [EB-47, 2-(4-{[(2S,3S,4R,5R)-5-(6-amino-9H-purin-9-yl)-3,4-dihydroxyoxolan-2-yl]carbonyl}piperazin-1-yl)-N-(1-oxo-2,3-dihydro-1H-isoindol-4-yl)acetamide]
reduction of PAR synthesis in the parasite [2]: not able to reduce PAR synthesis in the parasite
inhibition of PAR formation in culture, procyclic form [2]: did not inhibit TbPARP at all

IC50 (TbPARP; TbPARP IC50, […] nM TbPARP): 680 nM
IC50 (TbPARP; TbPARP pIC50 ± SEM, 5 nM TbPARP): 676 nM
Molecule: Cc1nc(=O)c2cccc(O)c2[nH]1 [NU1025, 8-hydroxy-2-methyl-1,4-dihydroquinazolin-4-one]
IC50 (hPARP-1; reported for human PARP-1): 400 nM

Molecule: CC1CS(=O)(=O)CCN1/N=C/c1ccc([N+](=O)[O-])o1 (stereo not shown) [Nifurtimox]
effect on bloodstream parasite growth [1]: did provoke a decrease on bloodstream parasite growth
effect on procyclic parasite growth [3]: slowed down procyclic parasite growth

Molecule: O=C(c1cc(Cc2n[nH]c(=O)c3ccccc23)ccc1F)N1CCN(C(=O)C2CC2)CC1 [Olaparib, 4-({3-[(4-cyclopropanecarbonylpiperazin-1-yl)carbonyl]-4-fluorophenyl}methyl)-1,2-dihydrophthalazin-1-one]
effect on bloodstream parasite growth [1]: not able to significantly affect T. brucei growth or survival
parasite viability (motility) in presence versus absence of inhibitor ([4]; 30 μM H2O2, 6 h): no difference in parasite viability
parasite viability (motility) in presence versus absence of inhibitor ([4]; 95 μM H2O2, 6 h): reduced the loss of viability induced by the oxidant
parasite motility in presence versus absence of inhibitor ([4]; 300 μM H2O2, 6 h, not statistically significant): slight protective effect
decrease in growth of T. cruzi epimastigotes in culture (T. cruzi epimastigotes; 25 nM): 50%
inhibition of PAR formation in culture, procyclic form [2]: inhibited PAR formation in culture; also recorded: able to reduce PAR formation
inhibition of PAR formation in culture, bloodstream form [5]: able to inhibit PAR formations in culture; also recorded: able to reduce PAR formation
growth rate of Tet induced RNAi-TbPARP procyclic parasites [6]: no change in growth rate
IC50 (TbPARP; [8]): 2.9 nM
IC50 (TbPARP; [9]): 2.95 nM

IC50 (TbPARP; [8]): 580 nM
IC50 (TbPARP; [9]): 589 nM
Molecule: CN(C)CC(=O)Nc1ccc2[nH]c(=O)c3ccccc3c2c1 [PJ-34, 2-(dimethylamino)-N-(6-oxo-5,6-dihydrophenanthridin-2-yl)acetamide]

IC50 (TbPARP; [8]): 1100 nM
IC50 (TbPARP; [9]): 1150 nM
Molecule: Oc1nc(C2CC2)nc2c1CSCC2 [RF03876, 2-cyclopropyl-5H,7H,8H-thiopyrano[4,3-d]pyrimidin-4-ol]

IC50 (TbPARP; [8]): 49 nM
IC50 (TbPARP; [9]): 49 nM
Molecule: C[C@]1(c2nc3c(C(N)=O)cccc3[nH]2)CCCN1 [Veliparib, 2-[(2R)-2-methylpyrrolidin-2-yl]-1H-1,3-benzodiazole-4-carboxamide]
Ki (hPARP-1): 5 nM

Molecule: Concanavalin A
cell death pattern (Annexin V incorporation) [7]: typical apoptosis response with an increment in Annexin incorporation
